Assay results as given in patent US20130053320A1, “TREATMENT OF ANEMIA BY ADNP AND ADNF POLYPEPTIDES” (Ramot at Tel-Aviv University, Ltd., priority 2010, published 2013).

Columns and labels:
[1] = test system: zebrafish embryos; experiment: Morpholino knockdown in zebrafish embryos, observation of blood and morphology; format: in vivo; details: for cardiac edema / smaller head and eyes: MO-injected embryos; for morphology and development: MO-injected embryos vs control; for smaller head and eyes: FIG. 2C; for blood colour: at 72 hpf, vs red blood of control embryos; for blood cells in circulation: starting from 28 hpf, vs control-MO injected embryos
Protocol: (§1) Gene knockdown experiments were performed using morpholino-modified antisense oligonucleotides (MO's, Gene Tools, Philomath, Oreg., USA). MO's were injected into wild type embryos, immediately after fertilization (2 nl, 1-2 mM). This was followed by a daily monitoring of the embryos for 10 days. MO's sequences were chosen through the Gene Tools oligonucleotide design service. A splicing MO, directed to intron3-exon4 boundary, was designed to block adnp1a (adnp1a-MO, 5′-[…]-3′). The efficiency of the adnp1a splicing MO was evaluated by RT-PCR. Translation MO's were designed to block adnp1b, adnp2a and adnp2b (adnp1 b-MO, 5′-[…]-3′; adnp2a-MO: 5′-[…]-3′; adnp2b-MO: 5′-[…]-3′). BLAST analysis was performed to verify that the MO's were not predicted to bind gene sequences other than their targets, and that their target sequence was not conserved among the other zebrafish adnp1 and adnp2 genes. Gene-Tools standard control-MO, which has not been reported to have other targets or generate any phenotypes, was used as a negative control (5-[…]-3′). Injections were repeated in at least 4 independent experiments for each MO.
For adnp2a-MO injected embryos, blood circulation was evaluated at 48 hpf. For the 3 other MO's, circulation was examined at 72 hpf when red blood is easily seen. Based on observation, embryos were divided to have normal blood cells, no blood cells or hypochromic and/or fewer blood cells.

[2] = test system: zebrafish embryos; experiment: O-dianisidine staining of Hb in whole MO-injected embryos; format: in vivo; details: for Hemoglobin (Hb) staining, Hb content: 48 hpf and 72 hpf; for O-dianisidine staining: 48 hpf, vs control embryos (legend FIG. 2F)
Protocol: as §1
Hb activity was detected in whole embryos by performing o-dianisidine staining as described (Iuchi and Yamamoto, 1983, J Exp Zool 226, 409-417).

[3] = test system: MEL cells; experiment: MEL cell erythroid differentiation, marker mRNA by Real-Time PCR; format: cell-based, mouse
Protocol: MEL cells were a gift from Prof. N. Shaklai (Tel Aviv University, Israel). Cells were cultured at 37° C. in 5% CO2 incubator in RPMI-1640 medium supplemented with 10% fetal calf serum, 2 mM L-glutamine, 100 U/ml penicillin, 0.1 mg/ml streptomycin and 12.5 U/ml nystatin (Biological Industries, Beit Haemek, Israel). To induce erythroid differentiation, 2% DMSO (v/v, Sigma, St. Louis, Mo., USA) was added for 4 days.
2 ADNP shRNA clones (sh68 and sh71, Sigma) were used for mouse ADNP (NM_009628) silencing in MEL cells, as before (Mandel et al., 2008, J Mol Neurosci 35, 127-141). […] For mouse ADNP2 (NM_175028) silencing, a mixture of 2 stealth small interfering RNA (siRNA) duplexes (Invitrogen, Carlsbad, Calif., USA) was used.
Transfections were performed using Lipofectamine-2000 (Invitrogen). 6 hours after transfection, 2% DMSO was added to the cells for 4 days in order to induce erythroid differentiation. On the 4th day, cells were harvested, RNA was extracted and expression levels of ADNP, ADNP2, band3, β-globin, Brg1 and c-kit were evaluated.
Total RNA from MEL cells was extracted by the RNeasy Plus Mini Kit (Qiagen, Hilden, Germany). RNA integrity was determined by fractionation on 1% agarose gel and staining with ethidium bromide. RNA quantity (OD260) was determined by NanoDrop spectrophotometer (NanoDrop Technologies, Wilmington, Del., USA).
Samples with the same amount of total RNA were used to synthesize single-strand cDNA employing the Applied Biosystems High Capacity cDNA Reverse Transcription Kit (Applied Biosystems, Foster City, Calif., USA) and random hexamers primers as before (Dresner et al., 2010, supra). Primer pairs (see Table 1) were designed using the primer 3 web interface (website: frodo.wi.mit.edu/primer3/) and synthesized by Sigma-Genosys (The Woodlands, Tex., USA). To avoid amplification of contaminating genomic DNA, primers were designed to exon-exon junction. […]

[4] = test system: MEL cells; experiment: Growth of MEL cells during differentiation (viable cell counts); format: cell-based, mouse; details: 2% DMSO vs ND cells
Protocol: FIG. 4: ADNP and ADNP2 are required for mouse erythroid differentiation. (A-C) MEL cells were differentiated with 2% DMSO for 4 days and compared to non-differentiated (ND) cells incubated for the same time period. Results are means±S.E.M analyzed by student's t-test (*p<0.05, **p<0.01, ***p<0.001). (A) The picture depicts the red pellet (Hb) of differentiated (D) cells compared to the white pellet of ND cells. (B) mRNA expression levels of β-globin, band3 and c-kit in D versus ND MEL cells. 4 experiments were performed, each in duplicates. Data is presented in logarithmic scale as fold change from the expression level in the ND state. (C) Growth curves of D and ND MEL cells. Results are % of the number of cells at plating (100%). […] Real-Time PCR analysis determined ADNP, ADNP2, β-globin, band3 and c-kit expression levels. […] Results, means±S.E.M were analyzed using student's t-test (*p<0.05, **p<0.01, ***p<0.001, relative to control cells, transfected with non-specific shRNA/siRNA sequences). (F+G) MEL cells were transfected with ADNP/ADNP2 shRNA/siRNA respectively, and viable cells were counted every 24 hrs during 4 days differentiation process with 2% DMSO. […] Results are presented as % from the number of cells at plating (100%), and analyzed using student's t-test (**p<0.01, relative to number of control cells, transfected with non-specific siRNA or shRNA sequences). […]

[5] = test system: zebrafish embryos; experiment: Whole-mount in situ hybridization (WMISH) of hematopoietic markers in MO-injected embryos; format: in vivo
Protocol: as §1
Transcripts of sci (NM_213237), lmo2 (NM_131111), gata1 (NM_131234), band3 (NM_198338), embryonic α-globin 1 (NM_182940), lys-C(NM_139180), l-plastin (NM_131320), ikaros (NM_130986), c-myb (NM_131266), irx7 (NM_131881), flk1 (NM_131472), cmlc2 (NM_131329), adnp1a (NM_001080015), adnp1b (XM—002666474), adnp2a (NM_001098265) and adnp2b (NM_001080013) were detected by WMISH using digoxygenin (DIG) labeled antisense RNA probes at a concentration of 1 ng/μl. Transcription of RNA probes was performed from pGEM-T Easy plasmids linearized before the coding sequence, using SP6 or T7 RNA polymerases (DIG RNA labeling kit, Roche Applied Science, Penzberg, Germany). Embryos at different developmental stages were fixed overnight in 4% paraformaldehyde and stored in 100% methanol. WMISH was performed as describe (Ziv et al., 2005, supra). Fixed embryos were then placed in 70% glycerol for observation and photography using a dissecting stereoscope (SZX12, Olympus) equipped with digital camera (DP70, Olympus). In each experiment, embryos hybridized with the same probe were stained under the same conditions and for the same time period using identical microscopic and camera settings.

[6] = 2% DMSO for 4 days vs non-differentiated cells

| Compound | cardiac edema [1] | morphology and development [1] | smaller head and eyes [1] | blood colour [1] | blood cells in circulation [1] | Hemoglobin (Hb) staining, Hb content [2] | O-dianisidine staining [2] | also measured |
| --- | --- | --- | --- | --- | --- | --- | --- | --- |
| adnp1b-MO: translation-blocking morpholino to zebrafish adnp1b, 5′-TTGTTCACTGGGAGTTGAAACATTC-3′ (all phosphorodiamidate morpholino (PMO)) | visible in some embryos | developmental delay, distorted tail morphology | 92 % of embryos | hypochromic | fewer blood cells in circulation | significant reduction in Hb content | Reduced staining | – |
| adnp1a-MO: splicing morpholino antisense oligonucleotide to intron3-exon4 boundary of zebrafish adnp1a, 5′-TAGTCCTGCAACATTTGAGAAACCA-3′ (all phosphorodiamidate morpholino (PMO)) | visible in some embryos | developmental delay, distorted tail morphology | 73 % of embryos | hypochromic | fewer blood cells in circulation | significant reduction in Hb content | Reduced staining | – |
| adnp2b-MO: translation-blocking morpholino to zebrafish adnp2b, 5′-ACCTTTTACTGGAAACTGGTACATG-3′ (all phosphorodiamidate morpholino (PMO)) | – | no developmental delay or major morphological changes | – | – | – | – | Reduced staining | morphology ([1]; injection of higher doses of MO): distorted morphology |
| C[S+](C)[O-] [DMSO] | – | – | – | – | – | – | – | c-kit expression lower ([3]; 2% DMSO for 4 days vs ND cells): 200 times; increase of band3 mRNA expression [3, 6]: 10000 fold; increase of β-globin mRNA expression [3, 6]: 1000 fold; growth rate of differentiating cells [4]: significant reduction |
| adnp2a-MO: translation-blocking morpholino to zebrafish adnp2a, 5′-CACTGGAATCTGATACATTTTGCTC-3′ (all phosphorodiamidate morpholino (PMO)) | noticeable cardiac edema | no effect on the overall morphology | – | – | – | totally negative | No staining is visible | ectopic expression of band3 along the tail and yolk sinus ([5]; 4 dpf): 100 % of embryos; ectopic expression of gata1 along the tail and yolk sinus ([5]; 4 dpf): 86 % of embryos; gata1 expression normal in the ICM ([5]; 17-19 hpf): 100 % of embryos; lmo2 expression intact in the ICM ([5]; 17-19 hpf): 100 % of embryos; scl expression intact in the ICM ([5]; 17-19 hpf): 100 % of embryos; band3 expression almost absent ([5]; 28 hpf): 83 % of embryos; embryonic α-globin 1 expression significantly reduced ([5]; 28 hpf): 96 % of embryos; gata1 expression dramatically reduced ([5]; 28 hpf): 90 % of embryos; l-plastin expression intact ([5]; 28 hpf): 100 % of embryos; lys-C expression intact ([5]; 28 hpf): 100 % of embryos; band3 expression almost absent ([5]; 48 hpf): 97 % of embryos; blood cells visible ([1]; between 33-48 hpf): no blood cells were evident |
